# In the supplement of paper PMC10307832:
# Legend:
# Test in all cases: relative viability (nuclei count vs DMSO), 5 days (fraction); higher = more cells survive
# [1] = compound: C(C(=O)C(=O)O)Br [Bromopyruvate] + CS(=O)(=O)N1CCN(Cc2cc3nc(-c4cccc5[nH]ncc45)nc(N4CCOCC4)c3s2)CC1 [Pictilisib] (partner 1 µM)
# Procedure, shortened: (§1)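 Lung cancer cell lines were pin-tool dosed in 1536-well plates on the day after seeding, with either a lone drug or a fixed anchor-drug dose plus five library-drug doses (not always all listed) in √10 steps. Nuclei were counted on 4× images after 5 days. Relative viability is the ratio of treated-well to vehicle-well nuclei counts, with each value a median of duplicate plates.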
# [2] = compound: C(C(=O)C(=O)O)Br [Bromopyruvate] + Nc1ncn([C@H]2C[C@H](O)[C@@H](CO)O2)c(=O)n1 [Decitabine] (partner 2 µM)
# Procedure, shortened: as §1
# [3] = compound: CC(O)(CS(=O)(=O)c1ccc(F)cc1)C(=O)Nc1ccc(C#N)c(C(F)(F)F)c1 [Bicalutamide] + CC(=O)Nc1cccc(-n2c(=O)n(C3CC3)c(=O)c3c(Nc4ccc(I)cc4F)n(C)c(=O)c(C)c32)c1 [Trametinib] (partner 0.02 µM)
# Procedure, shortened: as §1
# [4] = compound: CC(O)(CS(=O)(=O)c1ccc(F)cc1)C(=O)Nc1ccc(C#N)c(C(F)(F)F)c1 [Bicalutamide] + C[C@@H](Oc1cc(-c2cnn(C3CCNCC3)c2)cnc1N)c1c(Cl)ccc(F)c1Cl [Crizotinib] (partner 1 µM)
# Procedure, shortened: as §1
cell line,measurement,setting,value
UMC-11,relative viability,[1]; first compound 1 µM,0.797
same,relative viability,[1]; first compound 3.162 µM,0.797
same,relative viability,[1]; first compound 10 µM,0.956
same,relative viability,[1]; first compound 31.62 µM,0.78
same,relative viability,[1]; first compound 100 µM,0.78
same,relative viability,[2]; first compound 1 µM,0.596
same,relative viability,[2]; first compound 3.162 µM,0.574
same,relative viability,[2]; first compound 10 µM,0.815
same,relative viability,[2]; first compound 31.62 µM,0.617
same,relative viability,[2]; first compound 100 µM,0.708
same,relative viability,[3]; first compound 0.08 µM,0.771
same,relative viability,[3]; first compound 0.253 µM,0.572
same,relative viability,[3]; first compound 0.8 µM,0.808
same,relative viability,[3]; first compound 2.53 µM,0.686
same,relative viability,[4]; first compound 0.08 µM,0.69
same,relative viability,[4]; first compound 0.253 µM,0.521
same,relative viability,[4]; first compound 0.8 µM,0.643
same,relative viability,[4]; first compound 2.53 µM,0.399
